According to article PMC5215778, “Molecular Characterization of N-glycan Degradation and Transport in Streptococcus pneumoniae and Its Contribution to Virulence” (PLoS Pathogens, 2017):

Tests used:
NgtS [1] = target: T1, NgtS (Streptococcus pneumoniae, UniProt A0A0H2UMY0); test: ITC; details: 20 mM Tris, pH 8.0, 25 °C; 1:1 binding
T1 construct: gene SP_0092; residues 25-491, secretion signal peptide and lipobox removed, C-terminal six-histidine tag, expressed in E. coli BL21 Star (DE3)

SpGH92 [2] = target: T2, SpGH92 (Streptococcus pneumoniae, UniProt A0A0H2US35); test: X-ray crystal structure, […] Å; type: binding; details: crystal soaked with α-(1,2)-mannobiose; mannose in +1 subsite, Ca2+ and glycerol bound
T2 construct: gene SP_2145

SpGH92 [3] = target: T2, SpGH92; test: UPLC-MS; type: biochemical; details: 10 mM MOPS pH 7.0, 2 mM CaCl2, room temperature, 16 h, 0.6 μM substrate, 1 μM enzyme
NgtS [4] = target: T1, NgtS; test: UV difference titration; details: read-out: affinity constant; bimolecular binding model with ligand depletion
[5] = target: the molecule itself; test: crystal structure; crystals grown in 2.25 M (NH4)2SO4, 0.1 M Bis-Tris pH 5.5, soaked with α-(1,2)-mannobiose; four molecules in the asymmetric unit

T1 sequence (A0A0H2UMY0 25-491): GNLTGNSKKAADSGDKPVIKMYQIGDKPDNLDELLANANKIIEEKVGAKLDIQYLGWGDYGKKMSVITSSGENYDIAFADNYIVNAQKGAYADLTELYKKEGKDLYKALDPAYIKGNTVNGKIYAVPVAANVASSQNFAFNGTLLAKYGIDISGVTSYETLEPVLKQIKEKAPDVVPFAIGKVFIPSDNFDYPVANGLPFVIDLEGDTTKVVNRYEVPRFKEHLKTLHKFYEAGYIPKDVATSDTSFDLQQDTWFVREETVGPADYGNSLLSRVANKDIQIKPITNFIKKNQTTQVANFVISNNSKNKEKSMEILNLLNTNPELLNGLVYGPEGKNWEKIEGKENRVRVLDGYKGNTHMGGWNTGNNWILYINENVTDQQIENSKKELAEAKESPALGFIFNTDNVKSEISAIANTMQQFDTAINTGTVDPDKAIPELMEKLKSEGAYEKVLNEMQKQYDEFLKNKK

CC(=O)N[C@H]1C(O)O[C@H](CO)[C@@H](O[C@@H]2O[C@H](CO[C@H]3O[C@H](CO[C@H]4O[C@H](CO)[C@@H](O)[C@H](O)[C@@H]4O)[C@@H](O)[C@H](O[C@H]4O[C@H](CO)[C@@H](O)[C@H](O)[C@@H]4O)[C@@H]3O)[C@@H](O)[C@H](O[C@H]3O[C@H](CO)[C@@H](O)[C@H](O)[C@@H]3O)[C@@H]2O)[C@@H]1O (some centres unmarked) [Man5GlcNAc]
Ka (NgtS [1]): 1.04 (± 0.01)×10^6

OC[C@H]1OC(O)[C@@H](O)[C@@H](O)[C@@H]1O (some centres unmarked) [mannose]
X-ray crystal structure, 2.15 Å (SpGH92 [2]): electron density consistent with a single mannose residue, resulting from the hydrolysis

CC(=O)N[C@H]1[C@H](O[C@H]2[C@H](O)[C@@H](NC(C)=O)C(O)O[C@@H]2CO)O[C@H](CO)[C@@H](O[C@@H]2O[C@H](CO[C@H]3O[C@H](CO[C@H]4O[C@H](CO)[C@@H](O)[C@H](O)[C@@H]4O[C@H]4O[C@H](CO)[C@@H](O)[C@H](O)[C@@H]4O)[C@@H](O)[C@H](O[C@H]4O[C@H](CO)[C@@H](O)[C@H](O)[C@@H]4O[C@H]4O[C@H](CO)[C@@H](O)[C@H](O)[C@@H]4O)[C@@H]3O)[C@@H](O)[C@H](O[C@H]3O[C@H](CO)[C@@H](O)[C@H](O)[C@@H]3O[C@H]3O[C@H](CO)[C@@H](O)[C@H](O)[C@@H]3O[C@H]3O[C@H](CO)[C@@H](O)[C@H](O)[C@@H]3O)[C@@H]2O)[C@@H]1O (some centres unmarked) [Man9GlcNAc2]
UPLC-MS (SpGH92 [3]): treatment of Man9GlcNAc2 with SpGH92 produced a glycan having a mass consistent with Man5GlcNAc2

CC(=O)N[C@H]1C(O)O[C@H](CO)[C@@H](O[C@@H]2O[C@H](CO)[C@@H](O)[C@H](O)[C@@H]2O)[C@@H]1O (some centres unmarked) [Man1GlcNAc]
Kd (NgtS [4]): 83.3 µM

B1: SpGH92 (SP_2145), α-(1,2)-mannosidase from Streptococcus pneumoniae TIGR4 (enzyme)
chain: MKPLLETIDTRFGTTNKHAFSRGNTLPYTGVPFGMNYFVPQTSDQDGSWFFDPHLPIFQGIRLTHQPSPWIGDYSWLLLTPVTSQLGGDSLFHRQSSYDIDKACFQPHYLKLFSLRYQIETQLTPTCYGASIRLNQKQGKALSLYLHAADELTVEQVDKRTLALRQEGKTETNKNSLTMFTALQMNTDILAISQEAGDWRIDLASSQTEMQLATSFISPSQALINLPQEDFDSCKSSAQVDWENLLHRFDIIETGEADRTFFDHCLYRLFLFPQTFYEINESGQAIHMDLATGTVKPGVLFSNNGFWDTFRTTFPLFALIIPEHYQRFLEGFLNSYRDTGFLPKWLAPDERGMMPGTLLDGIIADSACKDMTPDLEGELFQAMLETASKADPLGINGRHGLAQYQELGYLSTDHHESVSHTLDYAYSDFCIASCAKKLENIEIAETYKAASQNYRQLFDAETGYMRARDNQGNFHPDFSPYSWGRDYAECSAIQATLGVLHDIPGLIQLMGGKETFSNYLLKACQDAPLFETTGYGYEIHEMSEMATAPFGQIAISNQPSFHIPYLFRYSDYPDYTALLIKTLRQKAFHPSWEAYPGDEDNGSLSAWYIWSALGFYPTCPGKPSYDLGIPLFDHLRVYLAKEDKWLDIHTKQNHNHFNFVKECRLDKTLVSTIQHQDLLKAEQLTFTLSWLPSH
notes: SpGH92, family 92 glycoside hydrolase, S. pneumoniae TIGR4 locus tag SP_2145, amino acids 1-694, cloned in pET28a between NheI and XhoI; Tetramer with D2 symmetry in the crystal and in solution; theoretical molecular weight of the tetramer 325.96 kDa; source: E. coli BL21 Star (DE3), autoinduction, purified (Ni-NTA)
stoichiometry N [5]: 4
